We go through five compounds from US20110015226A1, “Treatment of Energy Utilization Disease” (SUMMIT CORPORATION PLC, priority 2008, published 2011).

Some results are limits rather than exact numbers.

What is called IC50 is the midpoint of a concentration-inhibition curve. Read a high IC50 as lower potency. As a reminder, the inhibition is the share of the control response that was lost under treatment. The low end stands for a response near the control, the high end for a response far below the control.

Holding throughout (format): biochemical
In assay [1] the test system is β-D-galactosidase Bovine liver. Briefly: Glycosidase inhibition: β-D-galactosidase Bovine liver. The note with it: compounds tested at 0.8 mM. An excerpt:
(§1) The results tabulated below were obtained using commercially available glycosidases and p-nitrophenyl-substrates using standard methods described for example by Watson et al (1997) Phytochemistry 46 255-259. All enzymes and substrates were bought from Sigma. Enzyme and substrate solutions were made using sodium phosphate buffers at the pH optima values. The enzymes used were α-D-glucosidase Saccharomyces cerevisiae, Bacillus stearothermophilus, Oryzae sativa), β-D-glucosidase (Almond), α-D-mannosidase (Jack bean), α-D-galactosidase (Green coffee beans), β-D-galactosidase (Bovine liver), α-L-fucosidase (Bovine kidney), N-acetyl-β-D-glucosaminidase (Bovine kidney, Jack bean, Aspergillus oryzae), Naringinase (Penicillium decumbens) and amyloglucosidase (Aspergillus niger). All enzymes were used with the appropriate p-nitrophenyl substrates (5 mM). Amyloglucosidase activity was measured using amylopectin (0.1%) (Merck) mixed with sodium phosphate buffer, pH 4.5 in a glass bottle, and healed in a boiling water bath for 20 minutes to dissolve with released glucose measured using ‘Trinder’ glucose detection solution (Sigma).
(§2) All enzymes and para-nitrophenyl substrates were purchased from Sigma, with the exception of beta-mannosidase which came from Megazyme. Enzymes were assayed at 27° C. in 0.1M citric acid/0.2M disodium hydrogen phosphate buffers at the optimum pH for the enzyme. The incubation mixture consisted of 10 μl enzyme solution, 10 μl of 1 mg/ml aqueous solution of extract and 50 μl of the appropriate 5 mM para-nitrophenyl substrate made up in buffer at the optimum pH for the enzyme. The reactions were stopped by addition of 70 μl 0.4M glycine (pH 10.4) during the exponential phase of the reaction, which had been determined at the beginning using uninhibited assays in which water replaced inhibitor. Final absorbances were read at 405 nm using a Versamax microplate reader (Molecular Devices). Assays were carried out in triplicate, and the values given are means of the three replicates per assay. (See Watson, A. A., Nash, R. J., Wormald, M. R., Harvey, D. J., Dealler, S., Lees, E., Asano, N., Kizu, H., Kato, A., Griffiths, R. C., Cairns, A. J. and Fleet, G. W. J. (1997). Glycosidase-inhibiting pyrrolidine alkaloids from Hyacinthoides non-scripta. Phytochemistry 46 (2): 255-259.)

Assay [2] has as its target T1, rabbit intestinal sucrase (Oryctolagus cuniculus, UniProt P07768).
T1 construct: The small intestine was dissected out of a female wild rabbit; from tissue; host or cells: small-intestinal mucosa of a female wild rabbit
Briefly: Rabbit disaccharidase inhibition assay: sucrase. The settings on record: NI: no inhibition at 0.8 mM. As to the method:
(§3) Sucrose (8.3 mM), maltose (5 mM) and isomaltose (6.3 mM) substrates were made using 0.2 M Macllvaine (citrate-phosphate) buffer, pH 6.0. The glucose detection reagent was prepared according to the supplier's instructions (Megazyme Ltd). Linearity of the timecourse of the reaction between the glucose detection reagent and glucose was tested using a series of glucose dilutions.
(§4) The method for preparation of mammalian small intestine mucosal disaccharidases was based on Griffiths (1998), omitting ammonium sulphate fractionation steps. The small intestine was dissected out of a female wild rabbit, and opened longitudinally using a scalpel. The mucosal layer was scraped off using the edge of a clean microscope slide, and placed into 3 ml of dH2O. The mucosal layer suspension was centrifuged at around 1000 rpm for 30 seconds to sediment tissue debris. The supernatant ([…]) was removed, and centrifuged again at 3500 rcf for 1 minute to remove fine particulates from suspension. The supernatant was diluted to give 0.2-0.25 mg/ml protein and stored at −30° C.
(§5) Enzyme assays were carried out using 5-15 μl of enzyme preparation, 5 μl of test compound (or dH2O for controls) and 15-25 μl of substrate solution. Reactions were covered using a sheet of plate sealing film, and incubated at 37° C. for 60 minutes. Glucose (from disaccharide hydrolysis) was quantified by adding 200 μl of glucose detection reagent and incubating the reactions for a further twenty-five minutes. Absorbance was measured at 510 nm against control blanks.

In assay [3] the target is T2, rabbit intestinal isomaltase (Oryctolagus cuniculus, UniProt P07768).
T2 construct: The small intestine was dissected out of a female wild rabbit; from tissue; host or cells: small-intestinal mucosa of a female wild rabbit
T2 sequence (P07768 whole entry): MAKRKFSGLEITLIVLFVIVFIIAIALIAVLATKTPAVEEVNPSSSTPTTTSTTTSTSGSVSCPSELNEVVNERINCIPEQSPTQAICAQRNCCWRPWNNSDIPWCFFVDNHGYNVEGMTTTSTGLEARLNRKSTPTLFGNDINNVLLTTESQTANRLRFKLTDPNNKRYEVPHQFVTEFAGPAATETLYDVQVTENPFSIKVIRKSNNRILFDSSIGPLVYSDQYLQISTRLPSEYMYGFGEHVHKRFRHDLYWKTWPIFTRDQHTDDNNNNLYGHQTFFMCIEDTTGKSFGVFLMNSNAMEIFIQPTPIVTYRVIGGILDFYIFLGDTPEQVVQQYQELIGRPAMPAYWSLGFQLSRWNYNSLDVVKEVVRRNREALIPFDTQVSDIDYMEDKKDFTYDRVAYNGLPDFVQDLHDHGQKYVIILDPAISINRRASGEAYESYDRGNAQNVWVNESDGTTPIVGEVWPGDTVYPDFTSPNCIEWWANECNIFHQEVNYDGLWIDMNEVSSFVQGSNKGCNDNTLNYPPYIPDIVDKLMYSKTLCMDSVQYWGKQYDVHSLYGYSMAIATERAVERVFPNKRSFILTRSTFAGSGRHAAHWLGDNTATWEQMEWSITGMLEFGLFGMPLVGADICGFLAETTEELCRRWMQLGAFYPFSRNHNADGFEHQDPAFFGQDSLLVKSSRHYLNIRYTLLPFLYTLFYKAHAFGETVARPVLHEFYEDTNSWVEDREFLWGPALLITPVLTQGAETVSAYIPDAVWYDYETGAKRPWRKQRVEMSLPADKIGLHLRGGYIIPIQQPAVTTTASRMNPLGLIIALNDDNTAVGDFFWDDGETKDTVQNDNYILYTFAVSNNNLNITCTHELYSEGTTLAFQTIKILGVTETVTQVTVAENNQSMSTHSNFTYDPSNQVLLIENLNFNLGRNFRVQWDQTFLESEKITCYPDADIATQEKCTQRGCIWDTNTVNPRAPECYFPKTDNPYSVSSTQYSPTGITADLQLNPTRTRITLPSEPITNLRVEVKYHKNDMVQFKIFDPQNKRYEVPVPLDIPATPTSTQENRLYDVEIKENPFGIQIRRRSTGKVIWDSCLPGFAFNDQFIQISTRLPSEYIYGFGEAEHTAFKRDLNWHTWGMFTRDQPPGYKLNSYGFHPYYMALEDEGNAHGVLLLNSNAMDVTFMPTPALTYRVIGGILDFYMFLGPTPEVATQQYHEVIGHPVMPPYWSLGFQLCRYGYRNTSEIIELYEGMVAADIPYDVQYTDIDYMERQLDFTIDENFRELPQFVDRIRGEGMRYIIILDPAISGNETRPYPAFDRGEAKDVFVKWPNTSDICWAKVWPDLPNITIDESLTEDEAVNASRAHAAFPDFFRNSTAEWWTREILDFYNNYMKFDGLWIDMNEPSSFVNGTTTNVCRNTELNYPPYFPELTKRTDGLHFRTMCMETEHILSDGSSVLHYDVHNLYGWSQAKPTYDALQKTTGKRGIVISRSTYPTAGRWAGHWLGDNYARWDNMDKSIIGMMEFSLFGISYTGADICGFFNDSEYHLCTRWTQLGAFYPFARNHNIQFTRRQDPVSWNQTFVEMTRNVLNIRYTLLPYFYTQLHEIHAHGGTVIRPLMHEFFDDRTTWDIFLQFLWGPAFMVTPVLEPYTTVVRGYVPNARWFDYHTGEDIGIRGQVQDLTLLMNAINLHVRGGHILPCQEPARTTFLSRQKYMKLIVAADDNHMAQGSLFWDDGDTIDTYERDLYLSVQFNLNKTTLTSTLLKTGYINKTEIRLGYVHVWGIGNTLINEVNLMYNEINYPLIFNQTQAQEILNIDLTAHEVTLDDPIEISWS
Briefly: Rabbit disaccharidase inhibition assay: isomaltase. The settings on record: NI: no inhibition at 0.8 mM. As to the method: as §3, §4, §5

The target of assay [4] is T3, Amyloglucosidase Aspergillus niger (Aspergillus niger, UniProt P69328).
T3 construct: purchased Sigma
T3 sequence (P69328 25-640): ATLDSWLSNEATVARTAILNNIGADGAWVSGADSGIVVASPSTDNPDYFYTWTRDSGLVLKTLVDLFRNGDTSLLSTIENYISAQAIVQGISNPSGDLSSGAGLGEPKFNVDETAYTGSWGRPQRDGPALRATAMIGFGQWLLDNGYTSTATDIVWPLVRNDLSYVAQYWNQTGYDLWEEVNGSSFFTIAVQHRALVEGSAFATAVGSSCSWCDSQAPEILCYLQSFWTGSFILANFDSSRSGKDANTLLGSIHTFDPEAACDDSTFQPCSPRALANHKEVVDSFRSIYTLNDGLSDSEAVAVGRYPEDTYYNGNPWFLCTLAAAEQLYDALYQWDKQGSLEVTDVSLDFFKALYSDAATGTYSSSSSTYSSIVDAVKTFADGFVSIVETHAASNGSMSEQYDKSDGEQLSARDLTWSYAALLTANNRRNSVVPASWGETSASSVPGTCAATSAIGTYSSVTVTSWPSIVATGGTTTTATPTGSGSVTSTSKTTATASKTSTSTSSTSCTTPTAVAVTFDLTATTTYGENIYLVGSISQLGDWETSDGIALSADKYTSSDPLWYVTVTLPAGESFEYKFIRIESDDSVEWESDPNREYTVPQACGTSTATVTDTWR
Briefly: Glycosidase inhibition: Amyloglucosidase Aspergillus niger. The settings on record: compounds tested at 0.8 mM.
Text: as §1, §2

In assay [5] the test system is rabbit digestive disaccharidases. Briefly: Rabbit digestive disaccharidases (summary statement). The note with it: at 0.8 mM. As to the method: as §3, §4, §5
Assay [6] concerns the target T4, α-L-fucosidase Bovine kidney (Bos taurus, UniProt Q2KIM0).
T4 construct: α-L-fucosidase (Bovine kidney); purchased Sigma; host or cells: bovine kidney
T4 sequence (Q2KIM0 23-468): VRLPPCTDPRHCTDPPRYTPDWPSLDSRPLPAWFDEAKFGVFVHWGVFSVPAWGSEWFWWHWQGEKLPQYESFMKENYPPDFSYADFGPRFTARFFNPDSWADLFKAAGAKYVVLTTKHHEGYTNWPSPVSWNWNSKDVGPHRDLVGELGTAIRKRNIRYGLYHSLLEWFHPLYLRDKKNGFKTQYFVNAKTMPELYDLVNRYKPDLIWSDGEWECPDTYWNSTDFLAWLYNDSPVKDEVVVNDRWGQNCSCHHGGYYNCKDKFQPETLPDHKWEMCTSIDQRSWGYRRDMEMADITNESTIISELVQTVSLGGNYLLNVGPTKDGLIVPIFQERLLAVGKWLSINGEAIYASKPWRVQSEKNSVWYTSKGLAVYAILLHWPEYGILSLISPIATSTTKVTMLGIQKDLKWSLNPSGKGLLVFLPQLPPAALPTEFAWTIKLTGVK
Briefly: Glycosidase inhibition: α-L-fucosidase Bovine kidney. The note with it: compounds tested at 0.8 mM.

Assay [7] deals with rabbit intestinal maltase. Briefly: Rabbit disaccharidase inhibition assay: maltase. The note with it: NI: no inhibition at 0.8 mM. The protocol: as §3, §4, §5
The target in assay [8] is T5, N-acetyl-β-D-glucosaminidase (A. oryzae) (Aspergillus oryzae, UniProt Q8J2T0).
T5 construct: purchased Sigma
T5 sequence (Q8J2T0 97-600): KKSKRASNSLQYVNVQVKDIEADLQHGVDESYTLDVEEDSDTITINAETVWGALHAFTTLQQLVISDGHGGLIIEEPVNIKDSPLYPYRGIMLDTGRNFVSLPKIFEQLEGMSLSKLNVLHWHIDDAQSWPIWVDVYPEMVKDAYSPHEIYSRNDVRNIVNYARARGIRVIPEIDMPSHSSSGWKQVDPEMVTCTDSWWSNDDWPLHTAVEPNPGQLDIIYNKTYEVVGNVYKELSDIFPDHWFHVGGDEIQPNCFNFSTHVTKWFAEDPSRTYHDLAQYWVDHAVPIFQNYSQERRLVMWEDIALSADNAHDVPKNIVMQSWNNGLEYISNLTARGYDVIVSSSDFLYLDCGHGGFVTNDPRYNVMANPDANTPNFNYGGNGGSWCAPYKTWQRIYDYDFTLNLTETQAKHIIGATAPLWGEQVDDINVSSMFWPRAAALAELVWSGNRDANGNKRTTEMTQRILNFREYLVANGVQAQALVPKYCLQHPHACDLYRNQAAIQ
Briefly: Glycosidase inhibition: N-acetyl-β-D-glucosaminidase (A. oryzae). The note with it: compounds tested at 0.8 mM.
Text: as §1, §2

T1 sequence (P07768 whole entry): as the sequence (P07768 whole entry) above

Turning to `O=C(O)[C@H]1NC[C@H](O)[C@@H](O)[C@@H]1O` [Compound G2, 2S,3R,4R,5S-trihydroxypiperidine-2-carboxylic acid], the “% inhibition, β-D-galactosidase Bovine liver” value (“% inhibition” for short) in assay [1] is recorded as “NI (NI = no inhibition)”. The concentration for half-maximal inhibition (IC50) in assay [2], in assay [3] and in assay [7] was over 800 µM throughout. In addition, the inhibition at 800 µM in assay [4], in assay [6] and in assay [8] was under 10% throughout. Moreover, in assay [5], the “inhibition of the disaccharidases” value was “no inhibition”.

On to `O=C(O)CN1[C@H](CO)[C@@H](O)[C@H](O)[C@H]1CO` [Compound S2, 2-((2R,3R,4R,5R)-3,4-Dihydroxy-2,5-bis(hydroxymethyl)pyrrolidin-1-yl)acetic acid], for which, in assay [1], the “% inhibition” value is given as 60%. The half-maximal inhibitory concentration (IC50) in assay [2] and in assay [7] was over 800 µM throughout. The inhibition at 800 µM in assay [4], in assay [6] and in assay [8] was under 50% throughout. Further, the “inhibition of the disaccharidases” value in assay [5] was “no inhibition”.

Turning to `O=C(O)CCN1C[C@H](O)[C@@H](O)[C@H](O)[C@H]1CO` [Compound T1], the IC50 in assay [2] stood at 6.1 µM; in assay [7] it was 19 µM. The “sucrase IC50 (uM)” value in assay [2] is “very weak inhibition”. Moreover, the inhibition at 800 µM is 53% in assay [4], under 50% in assay [6] and under 50% in assay [8]. Moreover, the “maltase IC50 (uM)” value in assay [7] is listed as “very weak inhibition”.

Consider `CCCCOC(=O)[C@@H]1[C@@H](O)[C@H](O)[C@@H](O)CN1CCCC` [Compound T2, (2S,3R,4R,5S)-Butyl 1-butyl-3,4,5-trihydroxypiperidine-2-carboxylate], for which the IC50 in assay [2], in assay [3] and in assay [7] was over 800 µM in each case. In addition, the inhibition at 800 µM in assay [4], in assay [6] and in assay [8] was under 50% each time. Besides, in assay [5], the “inhibition of the disaccharidases” value is recorded as “no inhibition”.

Consider `OC[C@H]1NC[C@H](O)[C@@H](O)[C@@H]1O` [DNJ, 1-deoxynojirimycin, reference compound], for which, in assay [1], the “% inhibition” value is “NI (NI = no inhibition)”. The figures for the half-inhibitory concentration (IC50) in assay [2], in assay [3] and in assay [7] were 0.09 µM, 0.02 µM and 0.18 µM, respectively. The inhibition at 800 µM in assay [4] was 32%; in assay [6], under 10%; in assay [8], under 10%.
